Results on 4 compounds are retold here after article PMC3914206.

What all share (format): binding
Assay [1] concerns the target T1, panel of 442 kinases (Homo sapiens, UniProt P42336, M1043I).
T1 construct: purchased KINOMEscan
The following applies: Compound Concentration 10 µM. The source says: (§1) We assessed the selectivity of members of this scaffold using the KINOMEscan methodology across a near comprehensive panel of 442 kinases [[18,27]].

The target of assay [2] is T2, panel of 442 kinases (Homo sapiens, UniProt Q86Y07).
T2 construct: purchased KINOMEscan
The following applies: kinase VRK2; compound concentration 10 µM.
Description: as §1

Assay [3] deals with T3, panel of 442 kinases (Homo sapiens, UniProt Q9NYL2).
T3 construct: purchased KINOMEscan
Particulars: kinase ZAK; compound concentration 10 µM.
Description: as §1

T2 sequence (Q86Y07 whole entry): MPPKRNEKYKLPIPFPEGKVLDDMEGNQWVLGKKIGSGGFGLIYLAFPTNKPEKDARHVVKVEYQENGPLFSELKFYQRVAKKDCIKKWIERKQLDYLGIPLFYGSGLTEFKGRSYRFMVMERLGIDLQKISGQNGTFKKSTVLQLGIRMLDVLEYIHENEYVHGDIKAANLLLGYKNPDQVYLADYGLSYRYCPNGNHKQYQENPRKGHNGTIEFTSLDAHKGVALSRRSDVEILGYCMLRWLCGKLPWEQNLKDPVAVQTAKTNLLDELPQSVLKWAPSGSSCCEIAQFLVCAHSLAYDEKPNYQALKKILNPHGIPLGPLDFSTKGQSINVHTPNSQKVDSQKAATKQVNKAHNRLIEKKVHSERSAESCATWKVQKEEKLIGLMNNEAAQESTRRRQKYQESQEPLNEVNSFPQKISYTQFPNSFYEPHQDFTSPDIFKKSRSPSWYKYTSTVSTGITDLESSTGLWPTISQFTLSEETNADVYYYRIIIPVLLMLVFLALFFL
T3 sequence (Q9NYL2 whole entry): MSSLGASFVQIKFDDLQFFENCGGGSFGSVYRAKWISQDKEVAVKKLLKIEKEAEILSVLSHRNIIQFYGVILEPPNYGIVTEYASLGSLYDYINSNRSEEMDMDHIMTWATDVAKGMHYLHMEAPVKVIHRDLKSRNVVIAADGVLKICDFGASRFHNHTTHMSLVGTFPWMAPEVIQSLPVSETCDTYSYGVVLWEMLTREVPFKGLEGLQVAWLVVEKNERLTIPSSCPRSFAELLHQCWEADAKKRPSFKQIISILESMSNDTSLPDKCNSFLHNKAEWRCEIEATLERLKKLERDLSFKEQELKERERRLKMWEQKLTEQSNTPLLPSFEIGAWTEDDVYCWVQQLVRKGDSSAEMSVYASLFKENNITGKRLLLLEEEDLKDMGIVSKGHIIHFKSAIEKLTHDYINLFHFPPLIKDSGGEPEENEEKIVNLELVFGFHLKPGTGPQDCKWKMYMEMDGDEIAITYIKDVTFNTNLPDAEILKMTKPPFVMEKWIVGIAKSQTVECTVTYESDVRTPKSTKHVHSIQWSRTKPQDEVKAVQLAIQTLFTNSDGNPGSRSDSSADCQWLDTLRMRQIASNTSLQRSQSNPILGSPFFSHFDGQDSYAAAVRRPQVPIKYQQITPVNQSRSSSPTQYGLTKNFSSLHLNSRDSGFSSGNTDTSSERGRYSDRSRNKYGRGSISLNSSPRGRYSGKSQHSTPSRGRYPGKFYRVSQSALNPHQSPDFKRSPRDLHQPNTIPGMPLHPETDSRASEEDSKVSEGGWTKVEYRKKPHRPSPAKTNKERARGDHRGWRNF
T1 sequence (P42336 whole entry M1043I): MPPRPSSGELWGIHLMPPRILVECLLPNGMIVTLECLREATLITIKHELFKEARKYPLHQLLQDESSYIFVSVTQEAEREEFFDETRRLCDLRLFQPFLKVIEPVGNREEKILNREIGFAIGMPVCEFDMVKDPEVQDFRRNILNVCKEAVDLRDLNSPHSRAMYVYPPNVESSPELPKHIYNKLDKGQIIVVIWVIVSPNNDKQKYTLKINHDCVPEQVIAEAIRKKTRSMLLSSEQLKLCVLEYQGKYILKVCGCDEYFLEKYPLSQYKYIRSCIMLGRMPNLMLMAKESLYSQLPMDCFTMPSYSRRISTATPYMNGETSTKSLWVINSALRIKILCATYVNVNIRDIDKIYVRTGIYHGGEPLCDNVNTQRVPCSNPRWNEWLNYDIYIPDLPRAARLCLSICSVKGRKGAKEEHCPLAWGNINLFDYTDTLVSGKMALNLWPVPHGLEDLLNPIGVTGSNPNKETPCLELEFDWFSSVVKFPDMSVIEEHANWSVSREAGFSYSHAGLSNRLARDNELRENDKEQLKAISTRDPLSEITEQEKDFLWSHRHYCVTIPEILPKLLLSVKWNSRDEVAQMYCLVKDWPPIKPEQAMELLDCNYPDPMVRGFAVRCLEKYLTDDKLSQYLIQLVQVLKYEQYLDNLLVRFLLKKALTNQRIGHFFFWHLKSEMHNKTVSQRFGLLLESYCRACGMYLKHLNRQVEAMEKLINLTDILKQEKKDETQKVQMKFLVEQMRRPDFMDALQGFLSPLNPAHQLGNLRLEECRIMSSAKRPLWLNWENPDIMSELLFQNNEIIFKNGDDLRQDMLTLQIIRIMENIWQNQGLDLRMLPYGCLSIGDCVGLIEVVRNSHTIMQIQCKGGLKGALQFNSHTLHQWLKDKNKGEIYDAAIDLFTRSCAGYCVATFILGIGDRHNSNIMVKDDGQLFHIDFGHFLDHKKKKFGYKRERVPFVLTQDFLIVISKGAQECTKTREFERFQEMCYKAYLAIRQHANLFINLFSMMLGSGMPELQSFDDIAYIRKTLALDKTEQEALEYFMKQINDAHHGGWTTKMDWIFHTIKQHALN

`COc1cc(C(=O)N2CCC(N3CCN(C)CC3)CC2)ccc1Nc1ncc2c(n1)N(C)c1ccccc1C(=O)N2C` [15 (LRRK2-IN-1)]: the “KINOMEscan: PIK3CA(M1043I)” value in assay [1] turned out to be 65. Also, the “% Ctrl, VRK2” value in assay [2] turned out to be 99 % Ctrl. For the same compound, the “% Ctrl, ZAK” value in assay [3] stood at 99 % Ctrl.

With `COc1cc(C(=O)N2CCC(N3CCN(C)CC3)CC2)ccc1Nc1ncc2c(n1)N1CCc3cccc(c31)C(=O)N2C` [Compound 24], the “KINOMEscan: PIK3CA(M1043I)” value in assay [1] was 66. Besides, the “% Ctrl, VRK2” value in assay [2] is 100 % Ctrl. In addition, the “% Ctrl, ZAK” value in assay [3] was found to be 88 % Ctrl.

For the compound `COc1cc(C(=O)N2CCC(N3CCN(C)CC3)CC2)ccc1Nc1ncc2c(n1)N(C1CCCC1)c1ccccc1C(=O)N2C` [Compound 25, 11-cyclopentyl-2-((2-methoxy-4-(4-(4-methylpiperazin-1-yl)piperidine-1-carbonyl)phenyl)amino)-5-methyl-5H-benzo[e]pyrimido[5,4-b][1,4]diazepin-6(11H)-one], the “KINOMEscan: PIK3CA(M1043I)” value in assay [1] was found to be 93. The “% Ctrl, VRK2” value in assay [2] came to 100 % Ctrl. The “% Ctrl, ZAK” value in assay [3] was determined as 100 % Ctrl.

In the case of `CCOc1cc(C(=O)N2CCC(N3CCN(C)CC3)CC2)ccc1Nc1ncc2c(n1)N(C1CCCC1)c1ccccc1C(=O)N2C` [Compound 26], the “KINOMEscan: PIK3CA(M1043I)” value in assay [1] was found to be 92. For the same compound, the “% Ctrl, VRK2” value in assay [2] turned out to be 82 % Ctrl. Besides, the “% Ctrl, ZAK” value in assay [3] amounted to 100 % Ctrl.
